Results taken from BindingDB's records for doi:10.1021/acs.jmedchem.9b00068 (University of Michigan, 2019).

Experiments:
[1] = molecular target: T1, Eukaryotic translation initiation factor 4E (Homo sapiens, UniProt P06730); assay: Binding affinity to N-terminal 10His-tagged m7GDP-bound recombinant human eIF4E expressed in Escherichia coli BL21 (DE3) cells assessed as dissociation constant at 25 degreeC by surface plasmon resonance analysis
[2] = molecular target: T1, Eukaryotic translation initiation factor 4E; assay: Binding affinity to N-terminal 10His-tagged m7GDP-bound recombinant human eIF4E expressed in Escherichia coli BL21 (DE3) cells assessed as dissociation constant at 25 degreeC in presence 225 to 1000 mM of NaCl by surface plasmon resonance analysis

T1 sequence (P06730 whole entry): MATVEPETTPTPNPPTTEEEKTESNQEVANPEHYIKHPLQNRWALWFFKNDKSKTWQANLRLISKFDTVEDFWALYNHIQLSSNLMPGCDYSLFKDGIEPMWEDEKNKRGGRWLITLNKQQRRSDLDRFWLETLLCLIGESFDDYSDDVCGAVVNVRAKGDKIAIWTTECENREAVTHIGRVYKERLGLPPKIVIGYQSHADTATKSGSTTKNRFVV

Row | Kd [1] | Compound | Kd [2]
1 | 123 nM | Ac-KKRYSREQLLGL-NH2 | 
2 |  | CC(=O)N[C@@H](CCCCN)C(=O)N[C@@H](CCCCN)C(=O)N[C@@H](CCCNC(=N)N)C(=O)N[C@@H](Cc1ccc(O)cc1)C(=O)N[C@@H](CC(=O)O)C(=O)N[C@@H](CCCNC(=N)N)C(=O)N[C@@H](CCC(=O)O)C(=O)N[C@@H](Cc1ccccc1)C(=O)N[C@@H](CC(C)C)C(=O)N[C@@H](CC(C)C)C(=O)NCC(=O)N[C@@H](Cc1ccccc1)C(=O)N[C@@H](CCC(N)=O)C(=O)N[C@@H](Cc1ccccc1)C(N)=O | 0.046 nM
